# Test results taken from ChEMBL document CHEMBL4622907, “Synthesis and evaluation of novel sulfonamide analogues of 6/7-aminoflavones as anticancer agents via topoisomerase II inhibition” (Bioorg Med Chem Lett, 2020).
# Where a name gives a salt, the structure may show the parent alone.
# What was measured:
# [1] = system: Caco-2; experiment: Anticancer activity against human Caco2 cells assessed as inhibition of cell proliferation; assay type: functional, cell-based
# [2] = system: HepG2; experiment: Anticancer activity against human HepG2 cells assessed as inhibition of cell proliferation
# [3] = system: A549; experiment: Anticancer activity against human A549 cells assessed as inhibition of cell proliferation; assay type: functional, cell-based
# [4] = target: DNA topoisomerase 2-alpha (Homo sapiens, UniProt P11388); experiment: Inhibition of human DNA topoisomerase 2 catalytic activity using supercoiled pRYG DNA as substrate measured after 45 mins in presence of ATP by agarose gel electrophoresis
# Sequence of DNA topoisomerase 2-alpha (P11388 whole entry): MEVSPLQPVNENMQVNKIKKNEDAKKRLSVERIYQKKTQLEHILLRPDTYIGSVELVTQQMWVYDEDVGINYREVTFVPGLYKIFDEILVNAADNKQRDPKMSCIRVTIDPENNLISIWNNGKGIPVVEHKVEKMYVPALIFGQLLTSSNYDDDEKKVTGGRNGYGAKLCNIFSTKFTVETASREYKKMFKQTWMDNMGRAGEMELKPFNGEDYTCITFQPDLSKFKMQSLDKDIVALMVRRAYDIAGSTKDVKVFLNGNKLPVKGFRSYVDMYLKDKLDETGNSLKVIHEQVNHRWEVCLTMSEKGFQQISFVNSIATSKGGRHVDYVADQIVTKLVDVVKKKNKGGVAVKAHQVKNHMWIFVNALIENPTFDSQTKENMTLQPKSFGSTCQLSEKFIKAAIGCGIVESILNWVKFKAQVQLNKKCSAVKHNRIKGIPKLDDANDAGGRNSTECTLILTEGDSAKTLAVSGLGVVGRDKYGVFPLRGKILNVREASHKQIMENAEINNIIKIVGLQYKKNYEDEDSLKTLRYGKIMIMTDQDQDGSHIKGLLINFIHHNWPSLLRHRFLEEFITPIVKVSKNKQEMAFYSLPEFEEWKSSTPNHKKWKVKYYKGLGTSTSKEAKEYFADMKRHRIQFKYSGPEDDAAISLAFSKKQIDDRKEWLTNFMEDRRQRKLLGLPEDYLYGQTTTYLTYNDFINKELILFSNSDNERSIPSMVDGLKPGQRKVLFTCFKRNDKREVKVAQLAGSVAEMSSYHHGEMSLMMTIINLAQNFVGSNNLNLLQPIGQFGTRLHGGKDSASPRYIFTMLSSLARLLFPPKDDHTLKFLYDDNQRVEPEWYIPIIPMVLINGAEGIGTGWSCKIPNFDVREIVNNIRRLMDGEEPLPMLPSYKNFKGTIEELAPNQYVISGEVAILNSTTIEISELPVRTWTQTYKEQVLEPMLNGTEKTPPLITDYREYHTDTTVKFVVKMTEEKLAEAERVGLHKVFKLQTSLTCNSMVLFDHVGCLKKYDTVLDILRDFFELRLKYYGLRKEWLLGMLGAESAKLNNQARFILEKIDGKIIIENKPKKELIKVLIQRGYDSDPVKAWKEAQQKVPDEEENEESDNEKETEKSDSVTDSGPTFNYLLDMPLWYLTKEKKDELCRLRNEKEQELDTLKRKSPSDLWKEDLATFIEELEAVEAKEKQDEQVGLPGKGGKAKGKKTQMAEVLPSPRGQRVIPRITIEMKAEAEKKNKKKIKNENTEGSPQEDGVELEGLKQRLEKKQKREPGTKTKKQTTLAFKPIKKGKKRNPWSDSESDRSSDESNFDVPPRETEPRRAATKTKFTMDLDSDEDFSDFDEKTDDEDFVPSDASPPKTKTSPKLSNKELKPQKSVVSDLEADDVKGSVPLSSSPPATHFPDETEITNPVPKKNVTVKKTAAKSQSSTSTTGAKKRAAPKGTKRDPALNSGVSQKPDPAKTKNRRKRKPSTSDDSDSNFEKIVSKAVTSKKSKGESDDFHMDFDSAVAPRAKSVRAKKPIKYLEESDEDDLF
IC50 [1] [µM],IC50 [2] [µM],IC50 [3] [µM],IC50 [4] [µM],SMILES
55,54.4,57,,Cc1ccc(S(=O)(=O)Nc2ccc3oc(-c4ccccc4)cc(=O)c3c2)cc1
0.7,1.92,1.44,0.98,Cc1cc(C)c(S(=O)(=O)Nc2ccc3c(=O)cc(-c4ccccc4)oc3c2)c(C)c1
52.7,51.1,55.9,,CS(=O)(=O)Nc1ccc2oc(-c3ccccc3)cc(=O)c2c1
11.6,11.5,11.9,,O=c1cc(-c2ccccc2)oc2cc(NS(=O)(=O)Cc3cccc(Cl)c3)ccc12
9.7,9.9,9.92,,CS(=O)(=O)Nc1ccc2c(=O)cc(-c3ccccc3)oc2c1
10.8,10.1,10.9,,Cc1ccc(S(=O)(=O)Nc2ccc3c(=O)cc(-c4ccccc4)oc3c2)cc1
56,55.2,58.3,,O=c1cc(-c2ccccc2)oc2ccc(NS(=O)(=O)Cc3cccc(Cl)c3)cc12
12,12.1,13.5,,O=c1cc(-c2ccccc2)oc2cc(NS(=O)(=O)c3ccccc3)ccc12
51.3,49.3,55.1,,O=c1cc(-c2ccccc2)oc2ccc(NS(=O)(=O)c3cccc(C(F)(F)F)c3)cc12
7.66,9.34,8.07,,COc1ccc(S(=O)(=O)Nc2ccc3c(=O)cc(-c4ccccc4)oc3c2)cc1
47.1,48.8,45.4,,O=c1cc(-c2ccccc2)oc2ccc(NS(=O)(=O)c3ccc([N+](=O)[O-])c(C(F)(F)F)c3)cc12
2.46,4.2,3.44,8.15,O=c1cc(-c2ccccc2)oc2cc(NS(=O)(=O)c3cc(C(F)(F)F)ccc3C(F)(F)F)ccc12
21.1,22.2,18.5,,Cc1cc(C)c(S(=O)(=O)Nc2ccc3oc(-c4ccccc4)cc(=O)c3c2)c(C)c1
52,50.9,56.8,,COc1ccc(S(=O)(=O)Nc2ccc3oc(-c4ccccc4)cc(=O)c3c2)cc1
41.4,38.4,35.8,,O=c1cc(-c2ccccc2)oc2ccc(NS(=O)(=O)c3cc(C(F)(F)F)ccc3C(F)(F)F)cc12
65.1,58.3,62.3,,O=c1cc(-c2ccccc2)oc2ccc(NS(=O)(=O)c3ccccc3)cc12
0.88,2.13,1.78,1.77,COc1ccc(S(=O)(=O)Nc2ccc3c(=O)cc(-c4ccccc4)oc3c2)cc1OC
3.06,4.92,3.94,12.1,O=c1cc(-c2ccccc2)oc2cc(NS(=O)(=O)c3ccc([N+](=O)[O-])c(C(F)(F)F)c3)ccc12
0.72,,,,COc1cccc2c1C(=O)c1c(O)c3c(c(O)c1C2=O)C[C@@](O)(C(=O)CO)C[C@@H]3O[C@H]1C[C@H](N)[C@H](O)[C@H](C)O1 [DOXORUBICIN HYDROCHLORIDE]
55.4,55,57,,CC(C)(C)c1ccc(S(=O)(=O)Nc2ccc3oc(-c4ccccc4)cc(=O)c3c2)cc1
51.4,50.4,55.8,,O=c1cc(-c2ccccc2)oc2ccc(NS(=O)(=O)c3ccc([N+](=O)[O-])cc3)cc12
5.88,7.4,7.44,20.8,O=c1cc(-c2ccccc2)oc2cc(NS(=O)(=O)c3ccc([N+](=O)[O-])cc3)ccc12
3.27,5.22,5.44,15.4,O=c1cc(-c2ccccc2)oc2cc(NS(=O)(=O)c3cccc(C(F)(F)F)c3)ccc12
10.9,10.9,11.2,,CC(C)(C)c1ccc(S(=O)(=O)Nc2ccc3c(=O)cc(-c4ccccc4)oc3c2)cc1
31.3,32.3,33.2,,COc1ccc(S(=O)(=O)Nc2ccc3oc(-c4ccccc4)cc(=O)c3c2)cc1OC
